Data: patent US7638509B2, “Diene compounds and formulations” (priority 2003, dated 2009)
Positions count from the first letter of the chain named.

Columns and labels:
wild-type AR [1] = target: T1, wild-type AR (Homo sapiens, UniProt P10275); assay: AR transcription, MMTV-Luc reporter in COS-1 cells co-transfected with pSG5-AR; format: cell-based; design: expressed in transfected cells; host or cells: COS-1; conditions: COS-1, 1 nM DHT
T1 sequence (P10275 1-920): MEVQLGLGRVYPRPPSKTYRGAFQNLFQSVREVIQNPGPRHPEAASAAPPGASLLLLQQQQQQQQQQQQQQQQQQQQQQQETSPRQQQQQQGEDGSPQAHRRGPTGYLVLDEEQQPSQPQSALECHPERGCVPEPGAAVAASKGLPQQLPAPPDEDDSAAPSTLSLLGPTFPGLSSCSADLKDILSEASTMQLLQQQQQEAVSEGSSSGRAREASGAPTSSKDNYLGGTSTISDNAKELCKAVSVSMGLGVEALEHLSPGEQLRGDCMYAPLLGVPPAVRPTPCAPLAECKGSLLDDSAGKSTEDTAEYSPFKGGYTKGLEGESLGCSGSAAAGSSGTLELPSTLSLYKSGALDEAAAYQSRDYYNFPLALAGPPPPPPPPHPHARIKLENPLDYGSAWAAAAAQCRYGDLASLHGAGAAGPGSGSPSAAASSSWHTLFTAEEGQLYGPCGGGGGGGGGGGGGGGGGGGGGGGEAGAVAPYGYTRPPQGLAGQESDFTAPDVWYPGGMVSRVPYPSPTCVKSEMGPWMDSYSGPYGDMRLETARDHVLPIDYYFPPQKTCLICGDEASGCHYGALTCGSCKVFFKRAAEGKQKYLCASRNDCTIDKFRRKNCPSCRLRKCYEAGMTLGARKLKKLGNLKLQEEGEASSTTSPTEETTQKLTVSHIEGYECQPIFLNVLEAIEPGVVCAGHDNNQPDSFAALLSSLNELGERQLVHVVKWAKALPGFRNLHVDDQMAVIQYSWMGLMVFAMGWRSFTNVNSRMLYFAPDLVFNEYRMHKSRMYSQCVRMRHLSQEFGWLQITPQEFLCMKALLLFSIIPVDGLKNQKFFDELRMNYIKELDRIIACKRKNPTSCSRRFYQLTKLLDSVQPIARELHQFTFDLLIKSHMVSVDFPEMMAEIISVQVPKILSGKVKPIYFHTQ
Method: (§1) Cell Culture, Transfection, and Reporter Gene Assay. The human prostate cancer cell lines, LNCaP, PC-3, and DU145, and non-prostate cancer cell line COS-1 were maintained in RPMI or Dulbecco's modified Eagle's medium (DMEM) (Life Technologies) supplemented with 10% fetal bovine serum (FBS). […] Briefly, cells seeded to reach a density of 50-60% confluence in 12 well tissue culture plates were transfected with 1.5 μg of DNA according to “SuperFect transfection” instructions (Qiagen). After 2-3 h incubation, cells were treated with medium supplemented with charcoal-stripped FBS containing either ethanol or ligands for 24 h. The cells were then harvested and whole cell extracts were used for Luc assay. The Luc activity was determined using a Dual-Luciferase Reporter Assay System (Promega) and luminometer.
(§2) The pSG5-AR was co-transfected in COS-1 cells. […] Values were obtained from the mean±SD of at least three determinations. DU145 cells were transfected with the pSG5-AR and MMTV-Luc in the presence or absence of pSG5-ARA70. […] Values were obtained for the mean±SD of at least three determinations.

wild-type AR [2] = target: T1, wild-type AR; assay: Competitive [3H]-R1881 ligand binding assay, extracts of COS-1 transfected with wild-type AR; design: expressed in transfected cells; host or cells: COS-1; conditions: 1 nM [3H]-R1881, unlabeled ligand 1-10,000 nM, relative to DHT
Method: (§3) Ligand Binding Assay. Whole cell extracts from COS-1 with transient transfection of pSG5-AR, or LNCaP without transfection, were incubated for 2 h at 37° C. with 1 nM [^3H]-synthetic androgen methyltrienolone (R1881) in the presence and absence of increasing concentrations (1-10,000 nM) of unlabeled ligands. Then, hydroxyapatite (Bio-Rad) was added and stirred for 15 min at 4° C. After centrifugation and washing, radioactivity was determined by scintillation counting.
(§4) Clinically available antiandrogens have an affinity for the AR, allowing a competition with androgens for binding. To determine whether ADEK has this common feature of AR antagonists, the competitive androgen binding assay was performed.

AR [3] = target: T2, AR (Homo sapiens, UniProt P10275, T878A); assay: Adiol-induced AR transcription, MMTV-Luc in LNCaP cells; format: cell-based; conditions: 2.5 nM Adiol, compound at 1 μM
T2 construct: LNCaP without transfection; endogenous in cells; host or cells: LNCaP
T2 sequence (P10275 1-920 T878A): T1 sequence (P10275 1-920) with T878A
Method: (§5) Cell Culture, Transfection, and Reporter Gene Assay. The human prostate cancer cell lines, LNCaP, PC-3, and DU145, and non-prostate cancer cell line COS-1 were maintained in RPMI or Dulbecco's modified Eagle's medium (DMEM) (Life Technologies) supplemented with 10% fetal bovine serum (FBS). Transfections and luciferase (Luc) assays were performed as previously described (Miyamoto, H., Yeh, S., Wilding, G. & Chang, C. (1998) Proc. Natl. Acad. Sci. USA 95, 7379-7384; Miyamoto, H., Rahman, M., Takatera, H., Kang, H.-Y., Yeh, S., Chang, H.-C., Nishimura, K., Fujimoto, N. & Chang, C. (2002) J. Biol. Chem. 277, 4609-4617). Briefly, cells seeded to reach a density of 50-60% confluence in 12 well tissue culture plates were transfected with 1.5 μg of DNA according to “SuperFect transfection” instructions (Qiagen). After 2-3 h incubation, cells were treated with medium supplemented with charcoal-stripped FBS containing either ethanol or ligands for 24 h. The cells were then harvested and whole cell extracts were used for Luc assay. The Luc activity was determined using a Dual-Luciferase Reporter Assay System (Promega) and luminometer.
(§6) Effect of ADEK on AR Transcription. […] (set as 100%). Values were obtained from the mean±SD of at least three determinations.

PSA = PSA expression in LNCaP cells, Western blot; format: cell-based, human; conditions: 48 h, 1 nM DHT or 1 μM HF, casodex, ADEK in absence of DHT
Method: Western Blot. […] An antibody for -actin (Santa Cruz Biotechnology) was used as the internal control. Blots were quantitated by Collage software (Fotodyne).
The 33-kDa protein was quantitated. β-Actin expression was used as an internal control. […] The mean±SD of three separate experiments was determined. […] Total cell number was counted by hemocytometer. The mean of at least three determinations was determined.

wild-type AR [4] = target: T1, wild-type AR; assay: Adiol-induced AR transcription, MMTV-Luc in PC-3 cells with pSG5-AR; format: cell-based; design: expressed in transfected cells; host or cells: PC-3; conditions: PC-3, 2.5 nM Adiol, compound at 1 μM
Method: as §5, §6

AR [5] = target: T2, AR; assay: Competitive [3H]-R1881 ligand binding assay, LNCaP whole cell extracts; conditions: 1 nM [3H]-R1881, unlabeled ligand 1-10,000 nM, relative to DHT
Method: as §3, §4

mutant AR = target: T3, mutant AR (Homo sapiens, UniProt P10275, T878A); assay: AR transcription, MMTV-Luc reporter in LNCaP cells; format: cell-based
T3 construct: LNCaP without transfection; endogenous in cells; host or cells: LNCaP
T3 sequence (P10275 1-920 T878A): T1 sequence (P10275 1-920) with T878A
Method: as §1, §2

- suppression of DHT-induced wild-type AR transcription compared with ADEK at 1 μM (21%), in words (wild-type AR [1]): similar
- RBA in COS-1 with AR (wild-type AR [2]): 17.1
- block of Adiol-induced AR transcription (in words) (AR [3]): failed to significantly block
- block of Adiol-induced AR transcription (in words) (wild-type AR [4]): failed to significantly block
- RBA in LNCaP (AR [5]): 23.0
- suppression of DHT-induced mutant AR transcription (in words) (mutant AR; 10 μM): no suppression
- agonist / androgenic activity on mutant AR transcription (in words) (mutant AR; MMTV-Luc, HF at 10 μM): full agonist
Structure (SMILES): CC(C)(O)C(=O)Nc1ccc([N+](=O)[O-])c(C(F)(F)F)c1 [HF, hydroxyflutamide, reference compound]
- endogenous PSA expression over mock treatment (PSA): 3.5 fold
